Columns and labels:
MC38 cells [1] = test: Cell proliferation and cell death, CCK-8 and LDH assays; format: cell-based, murine; conditions: concentrations effective in vivo
Experimental: [FIG. 1-1] FIG. 1. Chemical activation of SRSFs exerts antitumor effects in a CD8^+ T cell-dependent manner and potentiates the response to PD-1 blockade. A: Experimental procedure involving an MC38 tumor-bearing model. B and C: Tumor volumes (B) and survival (C) are shown (n=12/group). ** represents p<0.01; and *** represents p<0.001. D and E: MC38 cells were treated with Compound 1 for 72 hours (D) or for the indicated time (E). Cell proliferation and cell death were measured using CCK-8 and LDH assays, respectively (n=3/group). F and G: Representative images (F) and quantitative data (G) of flow cytometry are shown (n=[…]/group). * represents p<0.05. H: Experimental procedure of antibody injection in an MC38 tumor-bearing model.
First, in vivo activity was assessed using syngeneic MC38 tumors intradermally transplanted into […] mice (FIG. 1-1A).

[2] = tested on: splenocytes (CD8^+ and CD4^+ T cells); test: Ex vivo splenocyte culture assay (antigen-independent T cell activation); format: cell-based, mice; conditions: 24 hours
MC38 cells [3] = test: RNA-seq analysis of RNA splicing patterns in MC38 cells; format: cell-based, murine
Experimental: [FIG. 4-1] FIG. 4. Identification of Compound 1-inducible splice-neoantigen candidates using RNA-seq analysis. A: A diagram of enhanced tumor immunity through compound 1-induced splice-neoantigens. B: A scheme for the screening of Compound 1-induced splice-neoantigen candidates through transcriptome analysis and prediction for MHC class I presentation. RNA-seq was conducted for MC38 cells treated with 10 μM Compound 1 or 0.1% DMSO for 6 hours in three biological replicates each. RNA-seq analysis was performed as detailed in the “Experimental Methods” section.
Aberrant selective splicing events in cancer cells may become a source of potential neoantigens. As it was confirmed that MHC class I in cancer cells is indispensable for the antitumor effects of Compound 1, Compound 1 was predicted to alter aberrant alternative splicing events and enhance the production of splice-neoantigens (FIG. 4-1A). To validate this concept, RNA-seq analysis was performed to assess RNA splicing patterns affected by Compound 1 in MC38 cells and splice products yielding potential neoantigens capable of binding to MHC class I (FIG. 4-1B). […] Next, to identify neoepitopes translating potential splice-neoantigens, splicing events elicited by Compound 1 that created abnormal coding sequences were extracted, and subsequently, whether these events create abnormal peptides were checked by comparing them with a reference peptide database.
With this approach, 169 Compound 1-induced non-annotated splice events for 130 genes were identified as neoantigen candidates, which were further subjected to prioritization based on the prediction scores for the binding affinity of each peptide to MHC class I alleles (H2-K^b and H2-D^b) with NetMHCpan4.1, the extents of splice rates, and mRNA expression (FIG. 4-2C).
RNA-Seq libraries were prepared using a TruSeq Stranded mRNA Library Kit (Illumina, San Diego, CA) and used for paired-end sequencing on an Illumina NovaSeq 6000 platform. RNA-seq data were mapped to the GRCm38 (mm10) genome sequence using HISAT2 program version 2.2.0 with the “--rna-strandness RF” option. Splice-junction information available from Ensembl gene annotation version 100 was used in this process. Mapped results were discarded when either of the paired reads was not mapped to the genome, or the relationships of mapping positions were abnormal.
For splicing analysis, rMATS program version 4.1.0 was used. For the reference transcript models used in the rMATS analysis, a set of new transcripts based on RNA-seq data was constructed using Cufflinks program version 2.2.1. Because the rMATS program skips soft-clipped reads and reads having indels in their alignment, bam files were modified to replace soft clipping and indel information as not changing the splice position information. After rMATS analysis, altered splicing events were extracted according to the following criteria: FDR<0.01, dPSI≥5.0, and average number of spliced reads≥15 in either of the samples.
Spliced regions were compared with Ensembl gene annotations for describing the amino acid sequence encoded in these regions. Amino acid sequences not observed in the original peptide database were searched and stored with seven amino acids margins from known sequences.

Clc1nc(NCc2ccco2)c2[nH]cnc2n1 [Compound 1]
cytotoxicity or cytostasis in vitro (MC38 cells [1]): not associated with cytotoxicity or cytostasis | CD44^+ and CD69^+ marker expressions in CD8^+ and CD4^+ T cells ([2]; flow cytometry): no such effects | secretion of inflammatory cytokines IFN-γ and TNF-α ([2]; supernatant): not observed | exonization induced in neurofibromin 1 (Nf1) (MC38 cells [3]): 108 bp | genes with induced non-annotated splice events (MC38 cells [3]; 10 μM, 6 hours): 130 | induced non-annotated splice events identified as neoantigen candidates (MC38 cells [3]; 10 μM, 6 hours): 169 | mRNA expression and splicing patterns of H2-K^b and PD-L1 (MC38 cells [3]; RNA-seq data): not significantly altered | mRNA expression of genes encoding conventional neoantigens (MC38 cells [3]; data not shown): no effect

— patent publication US20240423988A1, “Improvement of Tumor Immunogenicity by Means of Splicing-Controlling Compound” (Kyoto University, priority 2021, published 2024)
